Results published in patent US20130281524A1, “NOVEL TREATMENTS” (priority 2008, published 2013).
“Also recorded” adds a separate entry of the source.

Key:
[1] = system: gap junction communication between neurons and satellite glial cells in the trigeminal ganglion; assay: Dye coupling studies (True Blue) of neuron-satellite glia gap junction signalling in trigeminal ganglion after TNF-α and capsaicin; assay type: in vivo, Sprague Dawley rats; details: 10 mg/kg i.p. pre-treatment prior to TNF-α then capsaicin; V1 and V2 regions of ganglia
Method: (§1) Sprague Dawley rats injected with True Blue were used to localize neuronal cell bodies in the ganglion and study neuron-glia signalling via gap junctions in the trigeminal ganglion. Dye coupling studies were conducted under basal conditions and in response to tumour necrosis factor-α injection into the whisker pad and/or capsaicin injection into the eyebrow. Changes in connexin 26 and active p38 levels were determined by immunohistochemistry.
(§2) In addition, the effect of tonabersat prior to chemical stimulation on gap junction activity and expression of connexins and active p38 was investigated.
Young male rats (200-225 g) were brought to the lab and kept in a quiet environment for about 30 minutes. Rats were anesthetized by an intraperitoneal (i.p.) injection of 0.3 ml of ketamine and xylazine solution (800 mg and 60 mg in 10 ml, respectively; Sigma, St. Louis, Mo.). […] Initially, rats were injected with a fluorescent dye, True Blue (25 μl, 2 mg/ml in dimethyl sulfoxide, DMSO; Invitrogen, Eugene, Oreg.) in the whisker pad or eyebrow regions to retrogradely label neuronal cell bodies within the V1 and V2 regions of the trigeminal ganglion. Bilateral injections were performed using a 50 μL Hamilton syringe (Hamilton Company, Reno, Nev.) and a 261/2 G needle (Becton Dickinson, FranklinLakes, N.J.). […]

connexin 26 = assay: Immunohistochemistry of connexin 26 in trigeminal ganglia after TNF-α and capsaicin; assay type: in vivo, Sprague Dawley rats; details: 10 mg/kg i.p. pre-treatment
Method: as §1, §2
Ganglia were collected from untreated animals or animals injected with TNF-α, capsaicin, or TNF-α and capsaicin as described above. Sections were fixed using 4% paraformaldehyde for 60 minutes, permeabilized with 0.3% Triton-X100 for 60 minutes, and then incubated in 5% donkey serum for another 60 minutes. Sections were then incubated overnight at 4° C. with primary antibodies against connexin 26 (1:500 in PBS; Chemicon, Temecula, Calif.) or active p38 MAP kinase (1:200; Cell Signaling Technology, Danvers, Mass.). […]

active p38 MAP kinase = assay: Immunohistochemistry of active p38 in trigeminal ganglia after TNF-α and capsaicin; assay type: in vivo, Sprague Dawley rats; details: 10 mg/kg i.p. pre-treatment, neurons and satellite glial cells in V1 and V2 regions, compared to TNF-α and capsaicin treated animals
Method: as §1, §2
Ganglia were collected from untreated animals or animals injected with TNF-α, capsaicin, or TNF-α and capsaicin as described above. Sections were fixed using 4% paraformaldehyde for 60 minutes, permeabilized with 0.3% Triton-X100 for 60 minutes, and then incubated in 5% donkey serum for another 60 minutes. Sections were then incubated overnight at 4° C. with primary antibodies against connexin 26 (1:500 in PBS; Chemicon, Temecula, Calif.) or active p38 MAP kinase (1:200; Cell Signaling Technology, Danvers, Mass.). Immunoreactive proteins were visualized following incubation with Rhodamine Red Xconjugated donkey anti-rabbit antibodies (diluted 1:100 in PBS, Jackson Immuno-Research Laboratories, West Grove, Pa.) for 1 hour at room temperature and then mounted in Vectashield medium (H-1200) containing 4′,6 diamidino-2-phenylindole (DAPI) to allow for identification of neuronal and glial cell nuclei. As a control, some sections were incubated for 1 hour at room temperature with only the Rhodamine Red Xconjugated anti-rabbit antibodies. Images were collected as described above.
To determine whether TNF-α sensitization of capsaicin-responsive neurons could lead to increased expression of p38, animals were injected with TNF-α, capsaicin, or both agents and ganglion sections stained for the active phosphorylated form of p38. […]

trigeminal nerve = details: Parsons et al., Brit. J. Pharmacol. 2001, cited from earlier work

CC(=O)c1ccc2c(c1)[C@H](NC(=O)c1ccc(F)c(Cl)c1)[C@H](O)C(C)(C)O2 [tonabersat, cis-6-acetyl-4-(S)-(3-chloro-4-fluorobenzoylamino)-3,4-dihydro-2,2-dimethyl-2H-1-benzopyran-3-(S)-ol]
stimulated dye movement between neurons and satellite glial cells (gap junction communication) [1]: greatly reduced; also recorded: decrease
level of connexin 26 staining (connexin 26; V1 and V2 regions, compared to animals treated with TNF-α and capsaicin): greatly decreased; also recorded: decrease
number of plaques observed between neurons and satellite glial cells (connexin 26; ganglia from TNF-α and capsaicin treated animals, higher magnification): much lower
active p38 levels (active p38 MAP kinase): greatly decreased; also recorded: blocked
amount of nuclear staining of active p38 (active p38 MAP kinase): greatly decreased
active p38 levels (active p38 MAP kinase; listed as Tonabersat): lowered p38 levels to those observed in ganglia obtained from untreated control animals
trigeminal nerve activation (trigeminal nerve; 10 mg/kg, animal models): block
trigeminal parasympathetic reflexes (trigeminal nerve): blockade
